Measurements as given in ChEMBL document CHEMBL1201862, “PubChem BioAssay data set” (2004).
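Briefly, cells in 96-well plates were exposed to five compound concentrations for 48 h, and endpoints were estimated by linear interpolation. The concentration for 50% growth inhibition is given as GI50.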 The source made the active and inactive calls. No stated cut-off is given here; in the data, active = GI50 up to about 1.1 µM and inactive = higher.

Legend:
Experiment in all cases: NCI tumour cell line growth inhibition, 48 h
DLD-1 = tested on: DLD-1
RPMI-8226 = tested on: RPMI-8226
SF-295 = tested on: SF-295
SNB-19 = tested on: SNB-19
RXF 393 = tested on: RXF 393
SN12C = tested on: SN12C
HOP-62 = tested on: HOP-62
Malme-3M = tested on: Malme-3M
SK-MEL-5 = tested on: SK-MEL-5
MOLT-4 = tested on: MOLT-4
CCRF-CEM = tested on: CCRF-CEM
A498 = tested on: A498
786-0 = tested on: 786-0
EKVX = tested on: EKVX
NCI-H522 = tested on: NCI-H522
BT-549 = tested on: BT-549
NCI/ADR-RES = tested on: NCI/ADR-RES
MDA-N = tested on: MDA-N
DU-145 = tested on: DU-145
Hs-578T = tested on: Hs-578T

Compound | GI50 (DLD-1) | GI50 (RPMI-8226) | GI50 (SF-295) | GI50 (SNB-19) | GI50 (RXF 393) | GI50 (SN12C) | GI50 (HOP-62) | GI50 (Malme-3M) | GI50 (SK-MEL-5) | GI50 (MOLT-4) | GI50 (CCRF-CEM) | GI50 (A498) | GI50 (786-0) | GI50 (EKVX) | GI50 (NCI-H522) | GI50 (BT-549) | GI50 (NCI/ADR-RES) | GI50 (MDA-N) | GI50 (DU-145) | GI50 (Hs-578T)
O=C1Sc2ccccc2C(=O)N2CCSC12 (stereo unspecified) | > 100 µM (inactive) | > 100 µM (inactive) | > 100 µM (inactive) | > 100 µM (inactive) | > 100 µM (inactive) | > 100 µM (inactive) | > 100 µM (inactive) | > 100 µM (inactive) | > 100 µM (inactive) | > 100 µM (inactive) | > 100 µM (inactive) | 31 µM (inactive) | – | – | – | – | – | – | – | –
Oc1cc(-c2ccc(Oc3ccccc3)cc2)nc2cc3c(cc12)OCO3 | > 100 µM (inactive) | > 100 µM (inactive) | > 100 µM (inactive) | > 100 µM (inactive) | 57.5 µM (inactive) | > 100 µM (inactive) | > 100 µM (inactive) | > 100 µM (inactive) | > 100 µM (inactive) | > 100 µM (inactive) | > 100 µM (inactive) | > 100 µM (inactive) | > 100 µM (inactive) | > 100 µM (inactive) | – | – | – | – | – | –
Clc1ccc(CCn2cncn2)cc1 | > 100 µM (inactive) | > 100 µM (inactive) | > 100 µM (inactive) | – | > 100 µM (inactive) | > 100 µM (inactive) | > 100 µM (inactive) | > 100 µM (inactive) | > 100 µM (inactive) | > 100 µM (inactive) | > 100 µM (inactive) | > 100 µM (inactive) | > 100 µM (inactive) | – | > 100 µM (inactive) | – | – | – | – | –
COC(=O)C(CC(=O)c1cc2c(cc1I)OCO2)Cc1cc(OC)c(OC)c(OC)c1I (stereo unspecified) | > 100 µM (inactive) | 8.13 µM (inactive) | 16.8 µM (inactive) | > 100 µM (inactive) | 73.5 µM (inactive) | > 100 µM (inactive) | > 100 µM (inactive) | > 100 µM (inactive) | 13.6 µM (inactive) | 8.67 µM (inactive) | > 100 µM (inactive) | – | > 100 µM (inactive) | > 100 µM (inactive) | 9.06 µM (inactive) | – | – | – | – | –
CC(=O)c1ccc(OCC(O)CO)cc1 (stereo unspecified) | 45.8 µM (inactive) | 62.7 µM (inactive) | > 100 µM (inactive) | > 100 µM (inactive) | – | > 100 µM (inactive) | > 100 µM (inactive) | > 100 µM (inactive) | > 100 µM (inactive) | > 100 µM (inactive) | > 100 µM (inactive) | > 100 µM (inactive) | 25.6 µM (inactive) | > 100 µM (inactive) | > 100 µM (inactive) | – | – | – | – | –
O=C(CC1(O)C(=O)Nc2ccccc21)c1ccc2ccccc2c1 (stereo unspecified) | > 100 µM (inactive) | > 100 µM (inactive) | > 100 µM (inactive) | > 100 µM (inactive) | > 100 µM (inactive) | > 100 µM (inactive) | > 100 µM (inactive) | > 100 µM (inactive) | > 100 µM (inactive) | > 100 µM (inactive) | – | > 100 µM (inactive) | > 100 µM (inactive) | > 100 µM (inactive) | 99.5 µM (inactive) | – | – | – | – | –
COC(=O)CC(=O)OSc1ccccc1 | 17.2 µM (inactive) | 15.7 µM (inactive) | 27.5 µM (inactive) | 41.7 µM (inactive) | 10.4 µM (inactive) | 12.9 µM (inactive) | 22.4 µM (inactive) | 42.4 µM (inactive) | 22.3 µM (inactive) | 4.63 µM (inactive) | 3.76 µM (inactive) | 17.3 µM (inactive) | – | 17.6 µM (inactive) | 1.61 µM (inactive) | – | – | – | – | –
Cc1nc2cc(/N=N/c3c(C)noc3C)ccc2[nH]1 | – | 17.9 µM (inactive) | 23.4 µM (inactive) | 43.9 µM (inactive) | 16.3 µM (inactive) | 33.6 µM (inactive) | 27.1 µM (inactive) | 25.9 µM (inactive) | 12.4 µM (inactive) | 17.9 µM (inactive) | 25.2 µM (inactive) | 11.1 µM (inactive) | 28.1 µM (inactive) | 18.2 µM (inactive) | 23.3 µM (inactive) | 22.2 µM (inactive) | 28.1 µM (inactive) | 16.8 µM (inactive) | 27.7 µM (inactive) | 16.5 µM (inactive)
CC1C=CN(N(C)C)C2=C1C(=O)c1cnccc1C2=O (stereo unspecified) | – | 0.531 µM (active) | 0.676 µM (active) | 0.832 µM (active) | 0.408 µM (active) | 0.168 µM (active) | 0.349 µM (active) | 0.334 µM (active) | 0.274 µM (active) | 1.76 µM (inactive) | 2.09 µM (inactive) | 1.29 µM (inactive) | 0.195 µM (active) | 0.59 µM (active) | 0.17 µM (active) | 0.355 µM (active) | 0.927 µM (active) | 0.133 µM (active) | 0.372 µM (active) | 0.693 µM (active)
COc1cc(C2C(Cl)C(=O)N2NC(=O)c2ccc(NC(C)=O)cc2)cc(Br)c1O (stereo unspecified) | > 100 µM (inactive) | > 100 µM (inactive) | > 100 µM (inactive) | > 100 µM (inactive) | – | – | > 100 µM (inactive) | > 100 µM (inactive) | > 100 µM (inactive) | > 100 µM (inactive) | > 100 µM (inactive) | – | – | – | > 100 µM (inactive) | – | – | – | – | –
Cc1cccc(C)c1NC(=O)CCc1nnc(S)[nH]1 | > 100 µM (inactive) | > 100 µM (inactive) | – | > 100 µM (inactive) | > 100 µM (inactive) | > 100 µM (inactive) | > 100 µM (inactive) | > 100 µM (inactive) | – | > 100 µM (inactive) | > 100 µM (inactive) | > 100 µM (inactive) | > 100 µM (inactive) | > 100 µM (inactive) | > 100 µM (inactive) | – | – | – | – | –
CCCCCCCCOCC(O)COC(=O)CCCCCCC (stereo unspecified) | > 100 µM (inactive) | 27.1 µM (inactive) | > 100 µM (inactive) | > 100 µM (inactive) | – | > 100 µM (inactive) | > 100 µM (inactive) | > 100 µM (inactive) | > 100 µM (inactive) | 32.7 µM (inactive) | 12.1 µM (inactive) | > 100 µM (inactive) | > 100 µM (inactive) | – | – | – | – | – | – | –
CC(=O)Nc1ccc(/C=C(\NC(=O)c2ccccc2)C(=O)NNS(=O)(=O)c2ccc(C)cc2)cc1 | 33 µM (inactive) | 22.5 µM (inactive) | > 100 µM (inactive) | > 100 µM (inactive) | > 100 µM (inactive) | > 100 µM (inactive) | > 100 µM (inactive) | > 100 µM (inactive) | > 100 µM (inactive) | > 100 µM (inactive) | > 100 µM (inactive) | – | > 10 µM (inactive) | > 100 µM (inactive) | > 100 µM (inactive) | – | – | – | – | –
CCOC(=O)/C(=C/c1ccco1)P(=O)(OCC)OCC | > 100 µM (inactive) | > 100 µM (inactive) | > 100 µM (inactive) | – | – | > 100 µM (inactive) | – | > 100 µM (inactive) | > 100 µM (inactive) | > 100 µM (inactive) | > 100 µM (inactive) | > 100 µM (inactive) | > 100 µM (inactive) | > 100 µM (inactive) | > 100 µM (inactive) | – | – | – | – | –
O=C(c1ccco1)c1ccccc1C(=O)c1ccco1 | > 100 µM (inactive) | – | > 100 µM (inactive) | > 100 µM (inactive) | > 100 µM (inactive) | > 100 µM (inactive) | > 100 µM (inactive) | > 100 µM (inactive) | > 100 µM (inactive) | > 100 µM (inactive) | > 100 µM (inactive) | > 100 µM (inactive) | > 100 µM (inactive) | > 100 µM (inactive) | – | – | – | – | – | –
O=C1c2ccccc2C2(O)NC(=S)N(c3ccccc3)C12O (stereo unspecified) | > 100 µM (inactive) | > 100 µM (inactive) | > 100 µM (inactive) | > 100 µM (inactive) | – | – | – | > 100 µM (inactive) | – | > 100 µM (inactive) | > 100 µM (inactive) | – | > 100 µM (inactive) | > 100 µM (inactive) | > 100 µM (inactive) | – | – | – | – | –
CC(=O)c1ccc(NC(=O)/C(=N\NC(N)=O)C(C#N)CC(C)(C)C=O)cc1 (stereo unspecified) | > 100 µM (inactive) | > 100 µM (inactive) | > 100 µM (inactive) | > 100 µM (inactive) | > 100 µM (inactive) | > 100 µM (inactive) | > 100 µM (inactive) | – | > 100 µM (inactive) | > 100 µM (inactive) | > 100 µM (inactive) | > 100 µM (inactive) | – | > 100 µM (inactive) | > 100 µM (inactive) | – | – | – | – | –
O=C(Nc1cccc(O)c1)C(=O)C1C(=O)NC(=S)NC1=O | > 100 µM (inactive) | > 100 µM (inactive) | > 100 µM (inactive) | > 100 µM (inactive) | > 100 µM (inactive) | > 100 µM (inactive) | – | > 100 µM (inactive) | > 100 µM (inactive) | > 100 µM (inactive) | > 100 µM (inactive) | > 100 µM (inactive) | > 100 µM (inactive) | > 100 µM (inactive) | > 100 µM (inactive) | – | – | – | – | –
Cc1ccc(C)c(NC(=O)C(=O)CC(=O)C2CCOC2=O)c1 (stereo unspecified) | > 100 µM (inactive) | > 100 µM (inactive) | > 100 µM (inactive) | > 100 µM (inactive) | > 100 µM (inactive) | > 100 µM (inactive) | > 100 µM (inactive) | > 100 µM (inactive) | > 100 µM (inactive) | – | > 100 µM (inactive) | > 100 µM (inactive) | > 100 µM (inactive) | > 100 µM (inactive) | > 100 µM (inactive) | – | – | – | – | –
Nc1ccc(N)c2c1C(=O)c1ccccc1C2=O | 5.83 µM (inactive) | 9.16 µM (inactive) | – | > 100 µM (inactive) | – | 13.2 µM (inactive) | 5.01 µM (inactive) | 24 µM (inactive) | 15.8 µM (inactive) | 13.4 µM (inactive) | 32.1 µM (inactive) | 7.35 µM (inactive) | 78.7 µM (inactive) | 87.5 µM (inactive) | 9.48 µM (inactive) | – | – | – | – | –
